PubChem BioAssay AID270 (DTP/NCI, 2004)
“And” between values parts separate entries of the source, which are not always exact repeats. Identical values can stand only once. Records with an inconclusive call do not appear.

System: BDF1 mice, s.c. Lewis lung carcinoma, T/C %
Assay: NCI In Vivo Anticancer Drug Screen. Data for tumor model Lewis Lung Carcinoma (subcutaneous) in B6D2F1 (BDF1) mice
Procedure, shortened: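 First, mice carry a transplantable tumor. Next, groups receive either compound or vehicle. Finally, survival or tumor dimensions in the dosed animals are divided by the corresponding control figure.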

[1] = endpoint: mean tumor weight, dose: 100.0 mg/kg/injection, schedule: Q01DX011 (ip), vehicle: carboxymethylcellulose (CMC), higher = larger tumour
[2] = endpoint: mean tumor weight, dose: 200.0 mg/kg/injection, schedule: Q01DX011 (ip), vehicle: carboxymethylcellulose (CMC), higher = larger tumour

C=C(C)C1CC=C(C)CC1 (stereo unspecified)
T/C [1]: 65 % of control
T/C [2]: 43 % of control

O=c1cc(-c2ccccc2)oc2cccc(O)c12
T/C (endpoint: mean tumor weight, dose: 50.0 mg/kg/injection, schedule: Q01DX010 (ip), vehicle: saline, higher = larger tumour): 73 % of control
T/C (endpoint: mean tumor weight, dose: 100.0 mg/kg/injection, schedule: Q01DX010 (ip), vehicle: saline, higher = larger tumour): 70 % of control
T/C (endpoint: mean tumor weight, dose: 200.0 mg/kg/injection, schedule: Q01DX010 (ip), vehicle: saline, higher = larger tumour): 82 % of control
T/C (endpoint: mean tumor weight, dose: 400.0 mg/kg/injection, schedule: Q01DX010 (ip), vehicle: saline, higher = larger tumour): 67 % of control

COc1ccc(C[C@H](N)C(=O)NC2C(CO)OC(n3cnc4c(N(C)C)ncnc43)C2O)cc1 (stereo partly specified)
T/C (endpoint: median survival time, dose: 2.0 mg/kg/injection, schedule: Q01DX009 (ip), vehicle: saline, higher = longer survival): 97 % of control
T/C (endpoint: median survival time, dose: 4.0 mg/kg/injection, schedule: Q01DX009 (ip), vehicle: saline, higher = longer survival): 96 % of control and 101 % of control
T/C (endpoint: median survival time, dose: 8.0 mg/kg/injection, schedule: Q01DX009 (ip), vehicle: saline, higher = longer survival): 102 % of control
T/C (endpoint: median survival time, dose: 16.0 mg/kg/injection, schedule: Q01DX009 (ip), vehicle: saline, higher = longer survival): 99 % of control
T/C (endpoint: median survival time, dose: 32.0 mg/kg/injection, schedule: Q01DX009 (ip), vehicle: saline, higher = longer survival): 90 % of control and 110 % of control
T/C (endpoint: median survival time, dose: 64.0 mg/kg/injection, schedule: Q01DX009 (ip), vehicle: saline, higher = longer survival): 97 % of control and 102 % of control
T/C (endpoint: median survival time, dose: 128.0 mg/kg/injection, schedule: Q01DX009 (ip), vehicle: saline, higher = longer survival): 102 % of control

Cc1ccc2nc(-c3ccc(N=Cc4ccccc4O)cc3)sc2c1
T/C (endpoint: median survival time, dose: 200.0 mg/kg/injection, schedule: Q01DX009 (ip), vehicle: olive oil, sesame oil, peanut oil, higher = longer survival): 87 % of control

Cc1c2ccncc2c(C)c2c1[nH]c1ccccc12
T/C (endpoint: median survival time, dose: 37.5 mg/kg/injection, schedule: Q04DX003 (ip), vehicle: saline with Tween-80, higher = longer survival): 120 % of control
T/C (endpoint: median survival time, dose: 75.0 mg/kg/injection, schedule: Q04DX003 (ip), vehicle: saline with Tween-80, higher = longer survival): 87 % of control

NC(=S)N/N=C/c1nccc2ccccc12
T/C (endpoint: mean tumor weight, dose: 12.5 mg/kg/injection, schedule: Q01DX011 (ip), vehicle: carboxymethylcellulose (CMC), higher = larger tumour): 103 % of control
T/C (endpoint: mean tumor weight, dose: 25.0 mg/kg/injection, schedule: Q01DX011 (ip), vehicle: carboxymethylcellulose (CMC), higher = larger tumour): 48 % of control
T/C (endpoint: mean tumor weight, dose: 26.0 mg/kg/injection, schedule: Q01DX011 (ip), vehicle: saline, higher = larger tumour): 64 % of control
T/C (endpoint: mean tumor weight, dose: 33.5 mg/kg/injection, schedule: Q01DX011 (ip), vehicle: carboxymethylcellulose (CMC), higher = larger tumour): 56 % of control
T/C (endpoint: mean tumor weight, dose: 38.0 mg/kg/injection, schedule: Q01DX011 (ip), vehicle: saline, higher = larger tumour): 16 % of control
T/C (endpoint: mean tumor weight, dose: 40.0 mg/kg/injection, schedule: Q01DX011 (oral), vehicle: saline, higher = larger tumour): 42 % of control
T/C (endpoint: mean tumor weight, dose: 56.0 mg/kg/injection, schedule: Q01DX011 (ip), vehicle: saline, higher = larger tumour): 3 % of control
T/C (endpoint: median survival time, dose: 9.4 mg/kg/injection, schedule: Q01DX009 (ip), vehicle: saline with Tween-80, higher = longer survival): 124 % of control
T/C (endpoint: median survival time, dose: 18.8 mg/kg/injection, schedule: Q01DX009 (ip), vehicle: saline with Tween-80, higher = longer survival): 98 % of control and 108 % of control
T/C (endpoint: median survival time, dose: 37.5 mg/kg/injection, schedule: Q01DX009 (ip), vehicle: saline with Tween-80, higher = longer survival): 98 % of control

COc1ccc2c(=O)cc(-c3ccccc3)n(C)c2c1
T/C (endpoint: mean tumor weight, dose: 50.0 mg/kg/injection, schedule: Q01DX011 (ip), vehicle: saline, higher = larger tumour): 109 % of control
T/C (endpoint: mean tumor weight, dose: 100.0 mg/kg/injection, schedule: Q01DX011 (ip), vehicle: saline, higher = larger tumour): 83 % of control
T/C (endpoint: mean tumor weight, dose: 200.0 mg/kg/injection, schedule: Q01DX011 (ip), vehicle: saline, higher = larger tumour): 79 % of control

COC12C(COC(=O)NCCO)C3=C(C(=O)C(C)=C(N)C3=O)N1CC1NC12 (stereo unspecified)
T/C (endpoint: median survival time, dose: 3.13 mg/kg/injection, schedule: Q01DX009 (ip), vehicle: Klucel (hydroxypropylcellulose) (HPC), higher = longer survival): 94 % of control
T/C (endpoint: median survival time, dose: 6.25 mg/kg/injection, schedule: Q01DX009 (ip), vehicle: Klucel (hydroxypropylcellulose) (HPC), higher = longer survival): 92 % of control
T/C (endpoint: median survival time, dose: 25.0 mg/kg/injection, schedule: Q01DX009 (ip), vehicle: Klucel (hydroxypropylcellulose) (HPC), higher = longer survival): 94 % of control

O=P(c1ccccc1)(c1ccccc1)P(=O)(c1ccccc1)c1ccccc1
T/C (endpoint: mean tumor weight, dose: 33.0 mg/kg/injection, schedule: Q01DX011 (ip), vehicle: other, higher = larger tumour): 117 % of control
T/C (endpoint: mean tumor weight, dose: 66.0 mg/kg/injection, schedule: Q01DX011 (ip), vehicle: other, higher = larger tumour): 79 % of control
T/C (endpoint: mean tumor weight, dose: 100.0 mg/kg/injection, schedule: Q01DX011 (ip), vehicle: other, higher = larger tumour): 61 % of control
T/C (endpoint: mean tumor weight, dose: 150.0 mg/kg/injection, schedule: Q01DX011 (ip), vehicle: other, higher = larger tumour): 94 % of control
T/C (endpoint: mean tumor weight, dose: 200.0 mg/kg/injection, schedule: Q01DX011 (ip), vehicle: methylcellulose (MC), higher = larger tumour): 87 % of control
T/C (endpoint: mean tumor weight, dose: 300.0 mg/kg/injection, schedule: Q01DX011 (ip), vehicle: methylcellulose (MC), higher = larger tumour): 38 % of control

OCc1ccccc1OC1OC(CO)C(O)C(O)C1O (stereo unspecified)
T/C [1]: 106 % of control
T/C [2]: 86 % of control
T/C (endpoint: mean tumor weight, dose: 400.0 mg/kg/injection, schedule: Q01DX011 (ip), vehicle: carboxymethylcellulose (CMC), higher = larger tumour): 100 % of control
